These results are taken from ChEMBL document CHEMBL1142397, “Antineoplastic agents. 536. New sources of naturally occurring cancer cell growth inhibitors from marine organisms, terrestrial plants, and microorganisms(1a,)” (J Nat Prod, 2008).

Starred links: 1 amine or outer side, 2 acyl side, 3 side chain; linkers in the order of their positions; H or OH if unused. Non-standard residues stand in square brackets, D forms with d. Residues, ends and D or L forms follow the SMILES beside them. X1 = CCC(N[*:1])C(C)C(=O)O[C@H](C(=O)[*:2])[C@@H](C)CC; X2 = C[C@H](N[*:1])C(=O)C(C)(C)C(=O)[*:2]; NMeY = CN[C@@H](Cc1ccc(O)cc1)C(=O)O; NMeI = CC[C@H](C)[C@H](NC)C(=O)O; NMeV = CN[C@H](C(=O)O)C(C)C

One experiment concerns SF-295. The experiment in a line: Cytotoxicity against human SF295 cells assessed as concentration required for 50% inhibition. It is filed as functional.
In the next experiment the test system is KM-20L2. The experiment in a line: Cytotoxicity against human KM20L2 cells assessed as concentration required for 50% inhibition. Type of experiment: functional.
For a further experiment, the system named is A498. The experiment in a line: Cytotoxicity against human A498 cells assessed as concentration required for 50% inhibition. Type of experiment: functional.
A further experiment relates to OVCAR-3. The experiment in a line: Cytotoxicity against human OVCAR-3 cells assessed as concentration required for 50% inhibition. It is filed as functional.
For the next experiment, the system named is NCI-H460. The experiment is described as follows: Cytotoxicity against human NCIH460 cells assessed as concentration required for 50% inhibition. It is filed as functional.
The next experiment deals with SK-MEL-5. The experiment in a line: Cytotoxicity against human SK-MEL-5 cells assessed as concentration required for 50% inhibition. Type of experiment: functional.
In experiment [1] the test system is Mycobacterium tuberculosis. The experiment in a line: Antibacterial activity against Mycobacterium tuberculosis. It is filed as functional.
For another experiment, the system named is Vero. The experiment is described as follows: Cytotoxicity against african green monkey Vero cells. Type of experiment: functional, cell-based. To be noted: Chlorocebus sabaeus.
The test system of a further experiment is SF-268. The experiment in a line: Cytotoxicity against human SF268 cells assessed as concentration required for 50% inhibition. Type of experiment: functional.
A further experiment has as its system P388. The experiment in a line: Cytotoxicity against mouse P388 cells assessed as concentration required for 50% inhibition. It is filed as functional.
The subject of another experiment is MCF7. The experiment is described as follows: Cytotoxicity against human MCF7 cells assessed as concentration required for 50% inhibition. It is filed as functional.
A further experiment has as its system DU-145. The experiment in a line: Cytotoxicity against human DU145 cells assessed as concentration required for 50% inhibition. Type of experiment: functional.
In a further experiment the test system is BXPC-3. The experiment in a line: Cytotoxicity against human BXPC3 cells assessed as concentration required for 50% inhibition. Type of experiment: functional.

On to `CCC1NC(=O)[C@H](C)NC(=O)C(C)(C)C(=O)[C@H](C)NC(=O)[C@H](Cc2ccc(OC)cc2)N(C)C(=O)[C@H](C(C)C)N(C)C(=O)CNC(=O)[C@H]([C@@H](C)CC)N(C)C(=O)CNC(=O)[C@H]([C@@H](C)CC)OC(=O)C1C` (stereo partly specified) [MAJUSCULAMIDE C] (cyclo(A[X1]G[NMeI]G[NMeV][NMeY](Me)[X2])), for which the Activity worked out at 0.13 µg/mL in the experiment with SF-295; 0.0013 µg/mL with KM-20L2; 0.058 µg/mL in the experiment on A498; 0.51 µg/mL in the experiment on OVCAR-3; 0.0032 µg/mL with NCI-H460; 0.0068 µg/mL in the experiment on SK-MEL-5.
For `Cl.O[C@]12C=C(c3nccc4c3[nH]c3ccccc34)[C@@H]3CCN(CCCC/C=C\CC1)C[C@@]31C[C@@H]3/C=C\CCCCN3[C@H]12` [MANZAMINE A HCL], the Activity in [1] is 99%; in the experiment on SF-268 it was 0.42 µg/mL; in the experiment with KM-20L2 it was 0.37 µg/mL; with P388 it was 0.0067 µg/mL; with NCI-H460 it was 0.36 µg/mL; with MCF7 it was 0.41 µg/mL. Further, the figures for the Activity in the experiment on DU-145 and in the experiment with BXPC-3 were 0.6 µg/mL and 0.35 µg/mL, respectively. In experiment [1] (Mycobacterium tuberculosis), this compound yielded an MIC of 6.25 mg/L. In the experiment with Vero, this compound gave an IC50 of 1.7 mg/L.
